The term IC50 denotes the point on the concentration scale where inhibition reaches its midpoint.

For one data set, the system named is Ehrlich carcinoma. The data set is described as follows: Antineoplastic effect on Ehrlich carcinoma in mice (survival, T/C percent). Type of data set: in vivo, male ICR mouse. The note with it: in the abdomen once a day for 7 days. Here is the method: Antineoplastic effect on Ehrlich carcinoma:
(§1) About 10^6/0.2 ml of Ehrlich carcinoma cells were placed in an abdomen of each male ICR mouse of 5 weeks old. On the next day the administration of the test sample in the abdomen was started. The test sample was given once a day for 7 days. For an untreated group, a physiological saline solution was given in the same manner as above. […] The T/C percent (T/C x 100) was determined from the average survival periods (days) of the treated group and control group. Further, 50 % lethal dose (LD50) was determined from the number of the mice which died of toxicity of the test samples administered.

Data set [1] can be described thus: 50 % lethal dose from toxic deaths in the Ehrlich carcinoma experiment. In kind it is in vivo, male ICR mouse. As to conditions: mice bearing Ehrlich carcinoma, in the abdomen once a day for 7 days; for LD50: 43200 min. Here is the method:
as §1

The test system of data set [2] is Salmonella typhimurium TA-98. The data set is described as follows: Antimutagenic properties by Ames method with benzo[a]pyrene as mutagen. As to conditions: for Number of colonies: B(a)P, S-9 mix; for inhibition rate: inhibition of the mutagenic effect of B(a)P. Type of data set: cell-based. Here is the method: The experiment was carried out by Ames method using Salmonella typhimurium TA-98 (hereinafter referred to as TA-98) as the test microorganism and benzo[a]pyrene (hereinafter referred to as B(a)P) as the mutagen.
0.1 ml of a solution containing […] of B(a)P and a suitable amount of a compound of the present invention was added to 0.5 ml of S-9 mix and 0.1 ml of a TA-98 suspension. The mixture was incubated at 37°C for 20 min. 2 ml of soft agar was added thereto, mixed well and then spread evenly on a glucose minimum agar medium plate. After the incubation at 37°C for 48 h, the number of colonies formed by the back mutation was counted.
The number of the colonies formed when neither B(a)P nor the compound of the present invention was used was employed as the background.
The antimutagenic properties was shown as the rate of inhibition of the mutagenic effect according to the following formula: [formula]

In another data set the test system is Hela S3 cells. The data set is described as follows: Inhibition of proliferation of incubated Hela S3 cells. In kind it is cell-based. As to conditions: cells counted 3 days after addition of sample. Here is the method: Effect of inhibiting the proliferation of incubated Hela S3 cells:
Hela S3 cells were placed on a culture medium (NEM containing 10 % of calf serum in a plastic dish. After 2 days, an organoselenium compound was added thereto. After containing the culture for additional 3 days, the number of the cells was counted. The proliferation inhibition rate was calculated according to the following formula: Inhibition rate (%) = 100 x (B-A) / (B-C) in which A is the final number of the cells counted on the third day after addition of the test sample, B is the final number of the cells in a sample- free control and C is the number of the cells counted immediately after the addition of the test sample. The value of IC50 (50 % inhibitory concentration) was determined from a graph showing the relationship between the concentration of the sample and the inhibition rate.

In the data set on Ehrlich carcinoma (Mus musculus, Ehrlich, ip, 720 h, dose 2.0 mg/kg, observation period 60 days), `O=[Se]1OCCO1` [Compound 14, 1,2-ethanediol selenite] displayed a response vs control in vivo at 2 mg/kg of 193%. This compound gave a response vs control in vivo at 4 mg/kg with Ehrlich carcinoma (Mus musculus, Ehrlich, ip, 720 h, dose 4.0 mg/kg, observation period 60 days) of 266%. Moreover, the response vs control in vivo at 8 mg/kg with Ehrlich carcinoma (Mus musculus, Ehrlich, ip, 720 h, dose 8.0 mg/kg, observation period 60 days) came out at 108%. For the same compound, the response vs control in vivo at 16 mg/kg in the data set with Ehrlich carcinoma (Mus musculus, Ehrlich, ip, 720 h, dose […], observation period 60 days) amounted to 34%. In data set [1] (mouse, in vivo, ip), the LD50 at 720 h lay in the range of 4 to 8 mg/kg. For the same compound, the Number of colonies came to 231 in data set [2] (dose 0.5 µg/plate); 235 in data set [2] (dose 1 µg/plate); 156 in data set [2] (dose 5 µg/plate); 145 in data set [2] (dose 10 µg/plate); 76 in data set [2] (dose 50 µg/plate); 62 in data set [2] (dose 100 µg/plate). The same compound returned a Number of colonies in data set [2] (dose 500 µg/plate) of 32. Moreover, the inhibition rate in data set [2] (dose 0.5 µg/plate) came out at 23.1%; in data set [2] (dose 1 µg/plate), 21.6%; in data set [2] (dose 5 µg/plate) it was 51.1%; in data set [2] (dose 10 µg/plate), 55.2%; in data set [2] (dose 50 µg/plate) it was 81.0%; in data set [2] (dose 100 µg/plate), 86.2%. In addition, the inhibition rate in data set [2] (dose 500 µg/plate) is 97.4%.
In the case of `O=[Se](Cl)Cl.c1ccncc1` [Selenium oxychloride·pyridine (1:1) complex], the IC50 in the data set with Hela S3 cells turned out to be 0.59 µg/mL.
With selenium oxychloride [Compound 3], the “Antineoplastic effect (T/C percent)” value with Ehrlich carcinoma (dose 0.75 mg/kg, observation period 60 days) worked out at 141%; in the data set on Ehrlich carcinoma (dose 1.5 mg/kg, observation period 60 days) it was 222%; in the data set on Ehrlich carcinoma (dose 3.0 mg/kg, observation period 60 days) it was 168%; with Ehrlich carcinoma (dose 6.0 mg/kg, observation period 60 days) it was 105%. The compound also showed an LD50 in data set [1] of 6 mg/kg/day x7. Further, the Number of colonies came to 205 in data set [2] (dose 0.5 µg/plate); 230 in data set [2] (dose 1 µg/plate); 154 in data set [2] (dose 5 µg/plate); 132 in data set [2] (dose 10 µg/plate); 72 in data set [2] (dose 50 µg/plate); 70 in data set [2] (dose 100 µg/plate). In data set [2] (dose 500 µg/plate), this compound registered a Number of colonies of 27. The inhibition rate in data set [2] (dose 0.5 µg/plate) came to 30.3%; in data set [2] (dose 1 µg/plate), 22.0%; in data set [2] (dose 5 µg/plate) it was 52.0%; in data set [2] (dose 10 µg/plate), 60.6%; in data set [2] (dose 50 µg/plate), 84.3%; in data set [2] (dose 100 µg/plate), 85.6%. This compound also displayed an inhibition rate in data set [2] (dose 500 µg/plate) of 100%.
Regarding “selenium oxychloride·pyridine complex [Compound 4]”, the “Antineoplastic effect (T/C percent)” value worked out at 178.6% in the data set on Ehrlich carcinoma (dose 2.0 mg/kg, observation period 30 days); 218% with Ehrlich carcinoma (dose 2.0 mg/kg, observation period 60 days); 188.1% with Ehrlich carcinoma (dose 4.0 mg/kg, observation period 30 days); 270% in the data set with Ehrlich carcinoma (dose 4.0 mg/kg, observation period 60 days); 200.8% in the data set on Ehrlich carcinoma (dose 8.0 mg/kg, observation period 30 days); 297% with Ehrlich carcinoma (dose 8.0 mg/kg, observation period 60 days). Moreover, the LD50 in data set [1] is reported as 8 - 16 mg/kg/day x7. Also, the Number of colonies came to 213 in data set [2] (dose 0.5 µg/plate); 192 in data set [2] (dose 1 µg/plate); 180 in data set [2] (dose 5 µg/plate); 144 in data set [2] (dose 10 µg/plate); 93 in data set [2] (dose 50 µg/plate); 87 in data set [2] (dose 100 µg/plate). In data set [2] (dose 500 µg/plate), this compound showed a Number of colonies of 41. Further, the inhibition rate is 23.0% in data set [2] (dose 0.5 µg/plate); 32.8% in data set [2] (dose 1 µg/plate); 37.7% in data set [2] (dose 5 µg/plate); 52.5% in data set [2] (dose 10 µg/plate); 73.4% in data set [2] (dose 50 µg/plate); 75.8% in data set [2] (dose 100 µg/plate). In addition, the inhibition rate in data set [2] (dose 500 µg/plate) was 94.7%.

The values above are taken from patent EP0182317A2, “Antineoplastic agent” (priority 1984, dated 1986).
